Assay results reported in paper PMC8038955, “Antimicrobial D-amino acid oxidase-derived peptides specify gut microbiota” (Cellular and Molecular Life Sciences: CMLS, 2021).
Values after ≈ are worked out from the molar mass of the structure shown. Read-outs that look alike come from different tables or passages of the source. Where a SMILES comes first, the peptide text is derived from it. Bridges are numbered along the chain shown (N, C = ends). Where no end group is shown, it is not given here. [ ]: non-standard residue; d: D form. The star is where a group is joined. X1 = CC[C@H](C)CCCCC(=O)*; Dab = NCC[C@H](N)C(=O)O

How the values were obtained:
L. fermentum ATCC 14931 = test: Lactobacilli susceptibility, broth microdilution (ISO 10932/IDF 233); format: cell-based, Lactobacillus fermentum; conditions: Limosilactobacillus fermentum
Method: (§1) To assess the effect of antibacterial peptides on lactobacilli, Lactobacillus acidophilus ATCC 4356, Lactobacillus casei ATCC 393, Lactobacillus fermentum ATCC 14931, and Lactobacillus rhamnosus ATCC 7469 strains (from American Type Culture Collection) were used. Before performing the test, cultures were streaked on Lactobacilli MRS agar (MRS) and incubated for 24 h at 37 °C in an anaerobic chamber (BD Difco, Detroit, MI, USA). Antibacterial susceptibility testing was performed according to the ISO 10932/IDF 233 standard (ISO, 2010). […] Typically, a twofold serial dilution of stock solutions was performed in Lactobacilli MRS broth to obtain solutions in the 0.2–100 µM concentration range. Bacterial inocula were prepared by suspending colonies, from 24 h incubated Lactobacilli MRS agar plates, into 2 mL of 0.85% NaCl solution. […] MIC values were estimated after incubating the plates under anaerobic conditions at 37 °C for 48 h.

L. casei ATCC 393 = test: as above; format: cell-based, Lactobacillus casei; conditions: Lacticaseibacillus casei
Method: as §1

L. rhamnosus ATCC 7469 = test: as above; format: cell-based, Lactobacillus rhamnosus; conditions: Lacticaseibacillus rhamnosus
Method: as §1

L. acidophilus ATCC 4356 = test: as above; format: cell-based; conditions: Lactobacillus acidophilus
Method: as §1

[1] = tested on: Acinetobacter baumanii ATCC 17878; format: cell-based; conditions: control antibiotic; broth microdilution, Nutrient Broth 0.5×, overnight 37 °C
Method: (§2) MIC (Minimum Inhibitory Concentration) analyses were performed on Gram-positive and Gram-negative bacteria by a broth microdilution method previously described, with minor modifications. In details, assays were carried out in Nutrient Broth 0.5× (Difco, Detroit, MI, USA) using sterile 96-well polypropylene microtiter plates (cat. 3879, Costar Corp., Cambridge, MA, USA). Bacterial strains were grown in Luria–Bertani (LB) medium overnight at 37 °C and then diluted in nutrient broth at a final concentration of ~ 5 × 10^5 CFU/mL per well. […] Peptide concentrations were determined by spectrophotometric analysis using the extinction coefficients calculated by the ProtParam tool (http://web.expasy.org/protparam/). Twofold serial dilutions of peptides were carried out in the test wells (0.2–100 μM concentration range). Plates were incubated overnight at 37 °C. MIC value was taken as the lowest concentration at which growth was inhibited. Three independent experiments were performed for each MIC value. The peptide antibiotic polymyxin B and vancomycin (Sigma, St. Louis, MO) were tested as control. MIC values were measured on: Pseudomonas aeruginosa PAO1, Acinetobacter baumanii ATCC 17878, Escherichia coli ATCC 25922, Salmonella typhimurium ATCC 14028, Salmonella enteritidis 706 RIVM (kindly provided by Prof. E. Veldhuizen, Utrecht University, Holland), Staphylococcus aureus ATCC 6538P, and Enterococcus faecalis ATCC 29212.

[2] = tested on: Escherichia coli ATCC 25922; format: cell-based
Method: as §2

[3] = tested on: Pseudomonas aeruginosa PAO1; format: cell-based; conditions: control antibiotic; broth microdilution, Nutrient Broth 0.5×, overnight 37 °C
Method: as §2

[4] = tested on: Salmonella enteritidis 706 RIVM; format: cell-based; conditions: control antibiotic; broth microdilution, Nutrient Broth 0.5×, overnight 37 °C
Method: as §2

[5] = tested on: Salmonella typhimurium ATCC 14028; format: cell-based
Method: as §2

[6] = tested on: Enterococcus faecalis ATCC 29212; test: microbe, parasite or virus in culture; format: cell-based
Method: as §2

[7] = tested on: selected Gram-positive and Gram-negative strains; test: Antimicrobial activity of mucosal peptides on selected strains; format: cell-based; conditions: summary of Table 3
Method: as §2, with “The peptide antibiotic polymyxin B and vancomycin (Sigma, St. Louis, MO) were tested as control.” left out

[8] = tested on: Escherichia coli ATCC 25922; format: cell-based; remark: listed apart in the source
Method: The Minimum Bactericidal Concentration (MBC) was determined from the broth dilution of MIC tests by subculturing cell mixtures on agar plates. The MBC was defined as the lowest concentration of antibacterial agent that kills ≥ 99.9% of bacterial cells. According to a widely accepted criterion, peptides were considered bactericidal if their MBC was no more than four times the MIC.

[9] = control antibiotic, broth microdilution, Nutrient Broth 0.5×, overnight 37 °C

Compound: CC[C@H]1OC(=O)[C@H](C)[C@@H](O[C@H]2C[C@@](C)(OC)[C@@H](O)[C@H](C)O2)[C@H](C)[C@@H](O[C@@H]2O[C@H](C)C[C@H](N(C)C)[C@H]2O)[C@](C)(O)C[C@@H](C)C(=O)[C@H](C)[C@@H](O)[C@]1(C)O [Erythromycin]
- MIC (L. fermentum ATCC 14931; ATCC14931, Lactobacilli MRS broth, 3–8 × 10^5 CFU/mL, anaerobic, 37 °C, 48 h, 0.2–100 µM range, read-out: MIC): 1.4 µM (≈ 1.03 µg/mL)
- MIC (L. casei ATCC 393; ATCC393, Lactobacilli MRS broth, 3–8 × 10^5 CFU/mL, anaerobic, 37 °C, 48 h, 0.2–100 µM range, read-out: MIC): 2.8 µM (≈ 2.06 µg/mL)
- MIC (L. rhamnosus ATCC 7469; ATCC7469, Lactobacilli MRS broth, 3–8 × 10^5 CFU/mL, anaerobic, 37 °C, 48 h, 0.2–100 µM range, read-out: MIC): 0.7 µM (≈ 0.514 µg/mL)
- MIC (L. acidophilus ATCC 4356; ATCC4356, Lactobacilli MRS broth, 3–8 × 10^5 CFU/mL, anaerobic, 37 °C, 48 h, 0.2–100 µM range, read-out: MIC): 0.7 µM (≈ 0.514 µg/mL)

Compound: CC[C@H](C)CCCCC(=O)N[C@@H](CCN)C(=O)N[C@H](C(=O)N[C@@H](CCN)C(=O)N[C@H]1CCNC(=O)[C@H]([C@@H](C)O)NC(=O)[C@H](CCN)NC(=O)[C@H](CCN)NC(=O)[C@H](CC(C)C)NC(=O)[C@@H](Cc2ccccc2)NC(=O)[C@H](CCN)NC1=O)[C@@H](C)O [Polymyxin B, polymyxin B] (X1-[Dab]T[Dab][Dab][Dab][dF]L[Dab][Dab]T; lactam 4-C (inferred); N-terminus assumed)
- MIC [1]: 0.5 µg/mL (≈ 0.415 µM)
- MIC [2, 9]: 0.5 µg/mL
- MIC [3]: 0.25 µg/mL (≈ 0.208 µM)
- MIC [4]: 0.5 µg/mL (≈ 0.415 µM)
- MIC [5, 9]: 0.12 µg/mL

Compound: CN[C@H](CC(C)C)C(=O)N[C@H]1C(=O)N[C@@H](CC(N)=O)C(=O)N[C@H]2C(=O)N[C@H]3C(=O)N[C@H](C(=O)N[C@H](C(=O)O)c4cc(O)cc(O)c4-c4cc3ccc4O)[C@H](O)c3ccc(c(Cl)c3)Oc3cc2cc(c3O[C@@H]2O[C@H](CO)[C@@H](O)[C@H](O)[C@H]2O[C@H]2C[C@](C)(N)[C@H](O)[C@H](C)O2)Oc2ccc(cc2Cl)[C@H]1O [Vancomycin, vancomycin]
- MIC ([6]; Enterococcus faecalis, ATCC29212): 2 µg/mL
- MIC (L. fermentum ATCC 14931; ATCC14931, 48 h): > 100 µM
- MIC (L. casei ATCC 393; ATCC393, 48 h): > 100 µM
- MIC (L. rhamnosus ATCC 7469; ATCC7469, 48 h): > 100 µM
- MIC (L. acidophilus ATCC 4356; ATCC4356, 48 h): > 100 µM

Compound: EAANLFGKILEEKKLSRLPPSHL [EAA]
- MIC ([5]; ATCC 14028): > 200 µM
- MIC ([6]; ATCC 29212): > 200 µM
- antibacterial activity (in words) [7]: did not show any antibacterial activity

Compound: LKNARIVGELTGFRPVRPQVRLE [LKN]
- MIC ([2]; ATCC 25922): 50 µM
- MIC ([5]; ATCC 14028): > 200 µM
- MIC ([6]; ATCC 29212): > 200 µM
- MBC [8]: 50 µM
